{
  "source": "patent US7288273B1",
  "about": "“Gallotannins and ellagitannins as regulators of cytokine release” (The Penn State Research Foundation, priority 2000, dated 2007)",
  "key": {"[1]": {"tested_on": "LPS induced TNF-α secretion from h-PBMC's", "assay": "Inhibition of LPS induced TNF-α secretion from h-PBMC's", "type": "cell-based, human", "conditions": "for TNF-α secreted in the presence of LPS and 17c-20c: LPS 5 μg/mL, compound 10 μg/mL added after 45 minutes, h-PBMC's 3rd subject; for TNF-α secreted in the presence of LPS and 17c-20c / TNF-α secreted in the presence of LPS and 19c / 20c / TNF-α secreted in the presence of LPS and 18c-20c: ± SD; for TNF-α secreted in the presence of LPS and 19c / 20c: 8 h incubation; for TNF-α secreted in the presence of LPS and 19c / 20c / TNF-α secreted in the presence of LPS and 18c-20c: 4th subject", "method_in_brief": "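Human PBMCs stimulated with LPS (5 or 10 μg/mL), compounds added at varying concentrations 45 min after LPS or simultaneously; supernatants harvested after 8 h. Secreted TNF-α normalized as percent of maximum secretion with LPS alone.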"}, "[2]": {"tested_on": "IL-1β secretion from h-PBMC's", "assay": "IL-1β release from h-PBMC's, ELISA", "type": "cell-based, human", "conditions": "for IL-1β secreted in the presence of 17c-20c: h-PBMC's 2nd subject, ± SD", "method_in_brief": "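Human peripheral blood mononuclear cells from healthy donors were isolated, checked for viability by Trypan Blue exclusion, and set at 1×10^6 cells/well in 0.5 mL RPMI. The tannin was added from an HBSS stock, and plates were incubated at 37° C. in a humidified 5% CO2 atmosphere. Supernatants were taken after centrifugation at 400 g, and secreted IL-1β was quantified by a commercial ELISA. LPS was the positive control and untreated cells the negative control.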"}},
  "data": [
    {"compound": "O=C(OC[C@H]1O[C@@H](OC(=O)c2ccc(-c3ccc(C(=O)O[C@@H]4O[C@H](COC(=O)c5cc(O)c(O)c(O)c5)[C@@H](OC(=O)c5cc(O)c(O)c(O)c5)[C@H](OC(=O)c5cc(O)c(O)c(O)c5)[C@H]4OC(=O)c4cc(O)c(O)c(O)c4)cc3)cc2)[C@H](OC(=O)c2cc(O)c(O)c(O)c2)[C@@H](OC(=O)c2cc(O)c(O)c(O)c2)[C@@H]1OC(=O)c1cc(O)c(O)c(O)c1)c1cc(O)c(O)c(O)c1", "note": "[Compound 19c, 1,1′-O-2.2′,3,3′,4,4′,6,6′-Tetrakis(3,4,5-trihyroxybenzoyl)-β,β′-D,D′-glucopyranosylbiphenyl-4.4′-diester]", "values": [
      {"measurement": "TNF-α secreted in the presence of LPS and 17c-20c", "setting": "[1]; time 1 h", "result": "328.2 ± 61.5", "unit": "pg/mL"},
      {"measurement": "TNF-α secreted in the presence of LPS and 17c-20c", "setting": "[1]; time 4 h", "result": "1880.0 ± 20.1", "unit": "pg/mL"},
      {"measurement": "TNF-α secreted in the presence of LPS and 17c-20c", "setting": "[1]; time 8 h", "result": "1921.5 ± 399.8", "unit": "pg/mL"},
      {"measurement": "TNF-α secreted in the presence of LPS and 17c-20c", "setting": "[1]; time 12 h", "result": "2229.3 ± 353.1", "unit": "pg/mL"},
      {"measurement": "TNF-α secreted in the presence of LPS and 17c-20c", "setting": "[1]; time 16 h", "result": "2561.2 ± 718.8", "unit": "pg/mL"},
      {"measurement": "TNF-α secreted in the presence of LPS and 17c-20c", "setting": "[1]; time 24 h", "result": "2146.9 ± 69.3", "unit": "pg/mL"},
      {"measurement": "maximum inhibition of LPS induced TNF-α secretion", "setting": "[1]; LPS 10 μg/mL, substrate added after 45 minutes, 8 hours", "result": 25, "unit": "%"},
      {"measurement": "TNF-α secreted in the presence of LPS and 19c / 20c", "setting": "[1]; compound 0.6 μM added 45 minutes after LPS 1 μg/mL", "result": "85.1 ± 10.3", "unit": "% max. response"},
      {"measurement": "TNF-α secreted in the presence of LPS and 18c-20c", "setting": "[1]; compound 0.6 μM added 45 minutes after LPS 10 μg/mL, 8 hours", "result": "114.3 ± 11.9", "unit": "% max. response"},
      {"measurement": "TNF-α secreted in the presence of LPS and 19c / 20c", "setting": "[1]; compound 1.7 μM added 45 minutes after LPS 1 μg/mL", "result": "78.3 ± 9.1", "unit": "% max. response"},
      {"measurement": "TNF-α secreted in the presence of LPS and 18c-20c", "setting": "[1]; compound 2.8 μM added 45 minutes after LPS 10 μg/mL, 8 hours", "result": "83.5 ± 26.1", "unit": "% max. response"},
      {"measurement": "TNF-α secreted in the presence of LPS and 19c / 20c", "setting": "[1]; compound 3.4 μM added 45 minutes after LPS 1 μg/mL", "result": "81.8 ± 15.9", "unit": "% max. response"},
      {"measurement": "TNF-α secreted in the presence of LPS and 19c / 20c", "setting": "[1]; compound 5.6 μM added 45 minutes after LPS 1 μg/mL", "result": "57.5 ± 14.1", "unit": "% max. response"},
      {"measurement": "TNF-α secreted in the presence of LPS and 18c-20c", "setting": "[1]; compound 5.6 μM added 45 minutes after LPS 10 μg/mL, 8 hours", "result": "79.4 ± 15.1", "unit": "% max. response"},
      {"measurement": "TNF-α secreted in the presence of LPS and 19c / 20c", "setting": "[1]; compound 11.2 μM added 45 minutes after LPS 1 μg/mL", "result": "57.4 ± 7.3", "unit": "% max. response"},
      {"measurement": "TNF-α secreted in the presence of LPS and 18c-20c", "setting": "[1]; compound 11.2 μM added 45 minutes after LPS 10 μg/mL, 8 hours", "result": "92.4 ± 21.4", "unit": "% max. response"},
      {"measurement": "TNF-α secreted in the presence of LPS and 18c-20c", "setting": "[1]; compound 22.4 μM added 45 minutes after LPS 10 μg/mL, 8 hours", "result": "73.0 ± 12.6", "unit": "% max. response"},
      {"measurement": "IL-1β secreted in the presence of 17c-20c", "setting": "[2]; compound 0.6 μM", "result": "54.2 ± 57.5", "unit": "pg/mL"},
      {"measurement": "IL-1β secreted in the presence of 17c-20c", "setting": "[2]; compound 2.8 μM", "result": "60.9 ± 58.6", "unit": "pg/mL"},
      {"measurement": "IL-1β secreted in the presence of 17c-20c", "setting": "[2]; compound 5.6 μM", "result": "14.5 ± 25.2", "unit": "pg/mL"},
      {"measurement": "IL-1β secreted in the presence of 17c-20c", "setting": "[2]; compound 11.2 μM", "result": "9.4 ± 7.0", "unit": "pg/mL"},
      {"measurement": "IL-1β secreted in the presence of 17c-20c", "setting": "[2]; compound 16.8 μM", "result": "41.3 ± 14.8", "unit": "pg/mL"},
      {"measurement": "IL-1β secreted in the presence of 17c-20c", "setting": "[2]; compound 22.5 μM", "result": "23.2 ± 18.0", "unit": "pg/mL"},
      {"measurement": "IL-1β secreted in the presence of 17c-20c", "setting": "[2]; compound 28.1 μM", "result": "41.3 ± 6.0", "unit": "pg/mL"},
      {"measurement": "IL-1β secretion from h-PBMC's, in words", "setting": "[2]; h-PBMC's", "result": "lowest amounts of IL-1β production"}
    ]}
  ]
}
